As usually defined, the inhibition is the change of the read-out against control, counted positive when it falls.

One assay concerns carmine spider mite. Put plainly: bioactivity test against carmine spider mite, airbrush spray. It counts as in vivo. The conditions noted are these: Tetranychus cinnabarinus, 72 h, 600 mg/L; contrastive test; read-out: Insecticidal activity against carmine spider mite (% ). The method, boiled down:
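Broadbean seedlings infested with adult mites were sprayed with compound (acetone/methanol stock diluted in 0.1% Tween 80 water) by airbrush at 0.7 kg/cm^2, 0.5 ml. Three replicates were run. Mortality was scored after 72 hrs.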

The test system of another assay is cucumber gray mold. In words: fungicidal activity in vitro (inhibition rate) against cucumber gray mold. In kind it is cell-based. The conditions noted are these: 25 ppm, in vitro; read-out: inhibition rate against cucumber gray mold.
Assay [1] has as its system Green peach aphids (Myzus Persicae Sulzer). Put plainly: bioactivity test against green peach aphid, airbrush foliar spray. It counts as in vivo. The following applies: Myzus persicae, foliar, 48 h, contrastive test, read-out: Insecticidal activity against peach aphid (%); for pest or weed control at 600 µg/mL: 600 mg/L; for pest or weed control at 10 µg/mL: 10 mg/L; for pest or weed control at 100 µg/mL: 100 mg/L. The essentials:
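Death rate was scored at 48 hrs, held at 25±1 C and 60±5% RH, following airbrush foliar spray (0.5 mL, 10 psi) onto cabbage leaf discs bearing about 15-30 aphids. Test solutions: compound dissolved in 1:1 acetone:methanol, brought to concentration with 0.1% tween 80 water.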

In a further assay the test system is armyworm. Put plainly: bioactivity test against armyworm, airbrush spray. The following applies: 72 h, 600 mg/L; read-out: Insecticidal activity against armyworm (%). It counts as in vivo.
The subject of the next assay is Diamond back moth. Put plainly: insecticidal activity against diamond back moth, airbrush spray. In kind it is in vivo. The conditions noted are these: 72 h, 600 mg/L. The method, boiled down:
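Airbrush leaf-disc spray test: both faces of 2 cm cabbage discs received 0.5 ml of test solution at 0.7 kg/cm^2. Solutions were made in acetone:methanol (1:1) and brought to concentration with 0.1% Tween 80 in water. Ten second-instar larvae per disc, triplicates, were held at 25° C and 60˜70% R.H., with mortality recorded at 72 hrs.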

The next assay relates to wheat powdery mildew. Put plainly: protectant activity in vivo against wheat powdery mildew. The following applies: Triticum aestivum, 168 h, protectant activity; for pest or weed control at 6.25 µg/mL: read-out: control effect against wheat powdery mildew (%), 6.25 mg/L; for pest or weed control at 25 µg/mL: read-out: control effect against wheat powdery mildew (%), 25 mg/L; for pest or weed control at 100 µg/mL: read-out: control effect against wheat powdery mildew (%), 100 mg/L; for pest or weed control at 400 µg/mL: read-out: control effect against wheat powdery mildew (%), 400 mg/L.

The subject of another assay is corn rust. Put plainly: protectant activity in vivo against corn rust. The conditions noted are these: Zea mays, 168 h, protectant activity; for pest or weed control at 6.25 µg/mL: read-out: control effect against corn rust (%), 6.25 mg/L; for pest or weed control at 25 µg/mL: read-out: control effect against corn rust (%), 25 mg/L; for pest or weed control at 100 µg/mL: read-out: control effect against corn rust (%), 100 mg/L; for pest or weed control at 400 µg/mL: read-out: control effect against corn rust (%), 400 mg/L.

Another assay relates to cucumber downy mildew. Put plainly: protectant activity in vivo against cucumber downy mildew. The conditions noted are these: Cucumis sativus, 168 h, protectant activity; for pest or weed control at 400 µg/mL: read-out: control effect against cucumber downy mildew (%), 400 mg/L; for pest or weed control at 25 µg/mL: read-out: control effect against cucumber downy mildew (%), 25 mg/L; for pest or weed control at 50 µg/mL: read-out: control effect against cucumber downy mildew (%), 50 mg/L; for pest or weed control at 100 µg/mL: read-out: control effect against cucumber downy mildew (%), 100 mg/L.

Each structure is given as a SMILES string.

For the compound `COC(=O)c1ccc(Oc2ccc(CCNc3cc(Cl)ncn3)cc2)nc1` [CK77, reference compound], the pest or weed control at 600 µg/mL stood at 56% in the assay with carmine spider mite, 72% in assay [1], 0% in the assay on armyworm and 0% with Diamond back moth. The inhibition at 25 ppm with cucumber gray mold is 0%. The results for the pest or weed control at 6.25 µg/mL with wheat powdery mildew and in the assay with corn rust were 70% and 0%, respectively. Besides, the pest or weed control at 25 µg/mL in the assay on wheat powdery mildew turned out to be 80%; with corn rust, 40%. For the same compound, the pest or weed control at 100 µg/mL was 100% in the assay on wheat powdery mildew and 60% in the assay on corn rust. Also, the results for the pest or weed control at 400 µg/mL with wheat powdery mildew, in the assay on corn rust and with cucumber downy mildew were 100%, 100% and 0%, respectively.
With `CCc1ncnc(OCc2ccc(Oc3ccc(Cl)cc3)nc2)c1Cl` [CK25, reference compound], the pest or weed control at 600 µg/mL (with carmine spider mite; in assay [1]; in the assay on armyworm; with Diamond back moth) was 0% each time. Besides, the inhibition at 25 ppm in the assay on cucumber gray mold is less than 50%. The pest or weed control at 400 µg/mL in the assay on wheat powdery mildew amounted to 0%; in the assay with corn rust, 0%; in the assay on cucumber downy mildew, 100%. In addition, the pest or weed control at 25 µg/mL with cucumber downy mildew came out at 0%. Moreover, the pest or weed control at 50 µg/mL in the assay on cucumber downy mildew is 0%. The pest or weed control at 100 µg/mL in the assay on cucumber downy mildew amounted to 0%.
As to `N#Cc1ccc(Oc2ccc(CCNc3nc(Cl)ncc3Cl)cc2)nc1` [CK26, reference compound], the pest or weed control at 600 µg/mL in the assay with carmine spider mite was determined as 0%; in assay [1], 100%; with armyworm, 0%; in the assay on Diamond back moth it was 0%. In addition, in the assay with cucumber gray mold, the inhibition at 25 ppm is 0%. Further, the pest or weed control at 10 µg/mL in assay [1] worked out at 45%. The values for the pest or weed control at 100 µg/mL (in assay [1]; in the assay with corn rust; in the assay on cucumber downy mildew) were 48%, 0% and 60%, respectively. Besides, the pest or weed control at 400 µg/mL in the assay on wheat powdery mildew was 70%; in the assay on corn rust, 100%; in the assay on cucumber downy mildew, 100%. In addition, the pest or weed control at 6.25 µg/mL with corn rust came out at 0%. The pest or weed control at 25 µg/mL in the assay on corn rust and with cucumber downy mildew was 0% in each case. Besides, in the assay on cucumber downy mildew, the pest or weed control at 50 µg/mL was found to be 40%.
Regarding `COC(=O)c1ccc(Oc2ccc(CCNc3nc(Cl)ncc3Cl)cc2)nc1` [CK78, reference compound], the pest or weed control at 600 µg/mL with carmine spider mite is 17%; in assay [1], 0%; in the assay with armyworm, 0%; in the assay with Diamond back moth, 0%. Moreover, in the assay with cucumber gray mold, the inhibition at 25 ppm is 0%. In addition, the pest or weed control at 400 µg/mL with wheat powdery mildew, in the assay with corn rust and in the assay with cucumber downy mildew was 0% in each case.
Regarding `FC(F)(F)c1cccnc1Oc1ccc(CCNc2cc(Cl)nc(Cl)n2)cc1` [CK82, reference compound], the pest or weed control at 600 µg/mL worked out at 23% with carmine spider mite, 86% in assay [1], 0% in the assay with armyworm and 17% in the assay with Diamond back moth. For the same compound, the inhibition at 25 ppm with cucumber gray mold amounted to 0%. In addition, the pest or weed control at 10 µg/mL in assay [1] turned out to be 0%. For the same compound, the pest or weed control at 6.25 µg/mL in the assay on wheat powdery mildew and in the assay on corn rust was 0% in each case. The pest or weed control at 25 µg/mL with wheat powdery mildew and in the assay with corn rust was 0% in each case. The pest or weed control at 100 µg/mL in the assay with wheat powdery mildew stood at 80%; with corn rust it was 30%. Besides, the pest or weed control at 400 µg/mL with wheat powdery mildew and in the assay on corn rust was 100% in each case.
For the compound `CCOC(=O)c1ccc(Oc2ccc(CCNc3cc(Cl)ncn3)cc2)nc1` [CK74, reference compound], the pest or weed control at 600 µg/mL in the assay with carmine spider mite was found to be 0%; in assay [1], 100%; in the assay on armyworm, 0%; with Diamond back moth it was 0%. For the same compound, the inhibition at 25 ppm with cucumber gray mold amounted to 0%. For the same compound, the pest or weed control at 10 µg/mL in assay [1] was 26%. Besides, the pest or weed control at 100 µg/mL (in assay [1]; in the assay with corn rust) was 100% throughout. For the same compound, the pest or weed control at 400 µg/mL is 0% with wheat powdery mildew, 100% in the assay with corn rust and 50% in the assay with cucumber downy mildew. Further, the pest or weed control at 6.25 µg/mL with corn rust came out at 85%. The pest or weed control at 25 µg/mL in the assay with corn rust was determined as 90%.
`FC(F)(F)c1cccnc1Oc1ccc(CCNc2cc(Cl)ncn2)cc1` [CK80, reference compound]: the pest or weed control at 600 µg/mL in the assay with carmine spider mite turned out to be 6%; in assay [1], 87%; in the assay on armyworm it was 0%; with Diamond back moth, 0%. Moreover, in the assay on cucumber gray mold, the inhibition at 25 ppm stood at 0%. For the same compound, the pest or weed control at 10 µg/mL in assay [1] is 16%. Besides, the pest or weed control at 100 µg/mL in assay [1] came to 40%; with wheat powdery mildew, 80%; in the assay with corn rust, 85%. For the same compound, the pest or weed control at 6.25 µg/mL in the assay with wheat powdery mildew and with corn rust was 0% throughout. Moreover, the figures for the pest or weed control at 25 µg/mL with wheat powdery mildew and in the assay with corn rust were 0% and 20%, respectively. Moreover, the pest or weed control at 400 µg/mL in the assay with wheat powdery mildew is 100%; with corn rust, 100%; with cucumber downy mildew it was 85%.
Take `FC(F)(F)c1cnc(Oc2ccc(CCNc3cc(Cl)ncn3)cc2)c(Cl)c1` [CK70, reference compound]: the pest or weed control at 600 µg/mL in the assay with carmine spider mite came out at 13%; in assay [1], 81%; with armyworm it was 0%; in the assay on Diamond back moth, 0%. Also, the inhibition at 25 ppm in the assay on cucumber gray mold was found to be 0%. Also, the pest or weed control at 10 µg/mL in assay [1] amounted to 0%. For the same compound, the pest or weed control at 100 µg/mL amounted to 0% in assay [1], 0% in the assay with wheat powdery mildew, 30% in the assay on corn rust and 60% with cucumber downy mildew. The pest or weed control at 6.25 µg/mL in the assay with wheat powdery mildew and with corn rust was 0% throughout. In addition, the pest or weed control at 25 µg/mL turned out to be 0% in the assay with wheat powdery mildew, 10% with corn rust and 0% in the assay with cucumber downy mildew. The pest or weed control at 400 µg/mL in the assay with wheat powdery mildew came to 98%; with corn rust, 100%; with cucumber downy mildew, 100%. Moreover, in the assay with cucumber downy mildew, the pest or weed control at 50 µg/mL was 30%.
As for `Cc1nc(Cl)cc(NCCc2ccc(Oc3ccc(C(F)(F)F)cn3)cc2)n1` [CK67, reference compound], the pest or weed control at 600 µg/mL in the assay on carmine spider mite was determined as 61%; in assay [1], 86%; with armyworm it was 0%; in the assay on Diamond back moth, 14%. For the same compound, the inhibition at 25 ppm in the assay on cucumber gray mold turned out to be 0%. Further, the pest or weed control at 10 µg/mL in assay [1] was 0%. In addition, the values for the pest or weed control at 100 µg/mL (in assay [1]; with cucumber downy mildew) were 54% and 60%, respectively. The figures for the pest or weed control at 400 µg/mL in the assay on wheat powdery mildew, with corn rust and in the assay with cucumber downy mildew were 0%, 0% and 100%, respectively. The pest or weed control at 25 µg/mL with cucumber downy mildew was found to be 0%. Besides, the pest or weed control at 50 µg/mL with cucumber downy mildew was 20%.
Turning to `FC(F)(F)c1cccnc1Oc1ccc(CCNc2nc(Cl)ncc2Cl)cc1` [CK81, reference compound], the pest or weed control at 600 µg/mL in the assay with carmine spider mite stood at 0%; in assay [1], 75%; in the assay on armyworm, 14%; with Diamond back moth, 0%. Further, the inhibition at 25 ppm in the assay with cucumber gray mold is 0%. The pest or weed control at 400 µg/mL in the assay on wheat powdery mildew came to 40%; in the assay with corn rust, 80%.

The values are drawn from patent publication US9770026B2, “Substituted pyrimidine compound and uses thereof” (Shenyang Sinochem Agrochemicals R&D Co., Ltd., priority 2012, dated 2017).
